Test results taken from PubChem BioAssay AID1963971 (Molecular Pharmacology Branch, DTP, NCI, 2024).
pIC50: −log10 of the molar value.

Tested on: 953936-095-R-J2-PDC spheroids with HUVEC/MSC, viability
Assay: Anticancer human tumor 953936-095-R-J2-PDC patient-derived cervical squamous cell carcinoma cell line growth inhibition [PI3K]
Details: for pIC50: curve of first compound; for viability, T/C: stronger effect = lower value
Procedure, shortened: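 Tumor cells were combined with HUVEC and MSCs into spheroids, then dosed with PI3K-inhibitor combinations over half-log ranges capped near clinical Cmax or 10 microM.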

[1] = second compound 0.0316 µM, first compound 0.0316 µM
[2] = second compound 0.0316 µM, first compound 0.1 µM
[3] = second compound 0.1 µM, first compound 0.0316 µM
[4] = second compound 0.1 µM, first compound 0.1 µM
[5] = second compound 0.316 µM, first compound 0.0316 µM
[6] = second compound 0.316 µM, first compound 0.1 µM
[7] = second compound 1 µM, first compound 0.0316 µM
[8] = second compound 1 µM, first compound 0.1 µM
[9] = second compound 3.16 µM, first compound 0.0316 µM
[10] = second compound 3.16 µM, first compound 0.1 µM
[11] = second compound 10 µM, first compound 0.0316 µM
[12] = second compound 10 µM, first compound 0.1 µM
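Also: spheroids exposed to compounds for seven days before read-out.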

SMILES: C[C@@H](NC(=O)c1ncnc(N)c1Cl)c1ncc(C(=O)Nc2cc(C(F)(F)F)c(Cl)cn2)s1 + CC(Nc1ncnc2nc[nH]c12)c1cc2cccc(Cl)c2c(=O)n1-c1ccccc1
- pIC50 (second compound 0.0316 µM): < 5.00
- pIC50 (second compound 0.1 µM): < 5.00
- pIC50 (second compound 0.316 µM): < 5.00
- pIC50 (second compound 1 µM): < 5.00
- pIC50 (second compound 3.16 µM): < 5.00
- pIC50 (second compound 10 µM): < 5.00
- viability, T/C [1]: 103%
- viability, T/C [2]: 98.3%
- viability, T/C (second compound 0.0316 µM, first compound 0.316 µM): 101%
- viability, T/C (second compound 0.0316 µM, first compound 1 µM): 108%
- viability, T/C (second compound 0.0316 µM, first compound 3.16 µM): 101%
- viability, T/C (second compound 0.0316 µM, first compound 10 µM): 97.2%
- viability, T/C [3]: 113%
- viability, T/C [4]: 106%
- viability, T/C (second compound 0.1 µM, first compound 0.316 µM): 106%
- viability, T/C (second compound 0.1 µM, first compound 1 µM): 101%
- viability, T/C (second compound 0.1 µM, first compound 3.16 µM): 117%
- viability, T/C (second compound 0.1 µM, first compound 10 µM): 96.4%
- viability, T/C [5]: 107%
- viability, T/C [6]: 101%
- viability, T/C (second compound 0.316 µM, first compound 0.316 µM): 94.3%
- viability, T/C (second compound 0.316 µM, first compound 1 µM): 95.4%
- viability, T/C (second compound 0.316 µM, first compound 3.16 µM): 103%
- viability, T/C (second compound 0.316 µM, first compound 10 µM): 94.6%
- viability, T/C [7]: 96.5%
- viability, T/C [8]: 91.3%
- viability, T/C (second compound 1 µM, first compound 0.316 µM): 91.8%
- viability, T/C (second compound 1 µM, first compound 1 µM): 102%
- viability, T/C (second compound 1 µM, first compound 3.16 µM): 94.8%
- viability, T/C (second compound 1 µM, first compound 10 µM): 86.2%
- viability, T/C [9]: 87.2%
- viability, T/C [10]: 79.5%
- viability, T/C (second compound 3.16 µM, first compound 0.316 µM): 86.1%
- viability, T/C (second compound 3.16 µM, first compound 1 µM): 94%
- viability, T/C (second compound 3.16 µM, first compound 3.16 µM): 80.1%
- viability, T/C (second compound 3.16 µM, first compound 10 µM): 79.8%
- viability, T/C [11]: 60.9%
- viability, T/C [12]: 76.9%
- viability, T/C (second compound 10 µM, first compound 0.316 µM): 63.1%
- viability, T/C (second compound 10 µM, first compound 1 µM): 80.7%
- viability, T/C (second compound 10 µM, first compound 3.16 µM): 61.7%
- viability, T/C (second compound 10 µM, first compound 10 µM): 55.1%

SMILES: Cn1ncnc1[C@H]1c2n[nH]c(=O)c3cc(F)cc(c23)N[C@@H]1c1ccc(F)cc1 + CC(Nc1ncnc2nc[nH]c12)c1cc2cccc(Cl)c2c(=O)n1-c1ccccc1
- pIC50 (second compound 0.0316 µM): < 7.00
- pIC50 (second compound 0.1 µM): < 7.00
- pIC50 (second compound 0.316 µM): < 7.00
- pIC50 (second compound 1 µM): < 7.00
- pIC50 (second compound 3.16 µM): < 7.00
- pIC50 (second compound 10 µM): < 7.00
- viability, T/C (second compound 0.0316 µM, first compound 0.000316 µM): 110%
- viability, T/C (second compound 0.0316 µM, first compound 0.001 µM): 95.1%
- viability, T/C (second compound 0.0316 µM, first compound 0.00316 µM): 104%
- viability, T/C (second compound 0.0316 µM, first compound 0.01 µM): 98.8%
- viability, T/C [1]: 91.7%
- viability, T/C [2]: 96.7%
- viability, T/C (second compound 0.1 µM, first compound 0.000316 µM): 100%
- viability, T/C (second compound 0.1 µM, first compound 0.001 µM): 99.3%
- viability, T/C (second compound 0.1 µM, first compound 0.00316 µM): 105%
- viability, T/C (second compound 0.1 µM, first compound 0.01 µM): 99.7%
- viability, T/C [3]: 101%
- viability, T/C [4]: 90.1%
- viability, T/C (second compound 0.316 µM, first compound 0.000316 µM): 99.5%
- viability, T/C (second compound 0.316 µM, first compound 0.001 µM): 96.8%
- viability, T/C (second compound 0.316 µM, first compound 0.00316 µM): 110%
- viability, T/C (second compound 0.316 µM, first compound 0.01 µM): 92.9%
- viability, T/C [5]: 101%
- viability, T/C [6]: 91.9%
- viability, T/C (second compound 1 µM, first compound 0.000316 µM): 104%
- viability, T/C (second compound 1 µM, first compound 0.001 µM): 90.7%
- viability, T/C (second compound 1 µM, first compound 0.00316 µM): 90.2%
- viability, T/C (second compound 1 µM, first compound 0.01 µM): 84%
- viability, T/C [7]: 101%
- viability, T/C [8]: 86.9%
- viability, T/C (second compound 3.16 µM, first compound 0.000316 µM): 87.2%
- viability, T/C (second compound 3.16 µM, first compound 0.001 µM): 78.5%
- viability, T/C (second compound 3.16 µM, first compound 0.00316 µM): 79.8%
- viability, T/C (second compound 3.16 µM, first compound 0.01 µM): 81.5%
- viability, T/C [9]: 78%
- viability, T/C [10]: 81.3%
- viability, T/C (second compound 10 µM, first compound 0.000316 µM): 56.8%
- viability, T/C (second compound 10 µM, first compound 0.001 µM): 57.8%
- viability, T/C (second compound 10 µM, first compound 0.00316 µM): 56.9%
- viability, T/C (second compound 10 µM, first compound 0.01 µM): 61.9%
- viability, T/C [11]: 58.7%
- viability, T/C [12]: 58.9%
